Laboratory results: ChEMBL document CHEMBL1201862, “PubChem BioAssay data set” (2004)
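Assay format: 96-well plates, 48-hour exposure. GI50 = concentration required for 50% inhibition of growth.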 Calls of active or inactive are those of the source. Cut-off read from the data, not from the text of the source: active = GI50 up to about 1.1 µM and inactive = higher.

Key:
Test in all cases: inhibition of tumour cell growth, NCI panel, 48 h
SF-268 = test system: SF-268
HCT-116 = test system: HCT-116
MOLT-4 = test system: MOLT-4
ACHN = test system: ACHN
SF-539 = test system: SF-539
U-251 = test system: U-251
A498 = test system: A498
COLO 205 = test system: COLO 205
786-0 = test system: 786-0
NCI-H460 = test system: NCI-H460
Malme-3M = test system: Malme-3M
HOP-92 = test system: HOP-92
RPMI-8226 = test system: RPMI-8226
SNB-19 = test system: SNB-19
HCC 2998 = test system: HCC 2998
OVCAR-8 = test system: OVCAR-8
LOX IMVI = test system: LOX IMVI
OVCAR-4 = test system: OVCAR-4
SK-MEL-2 = test system: SK-MEL-2

SMILES	GI50 (SF-268)	GI50 (HCT-116)	GI50 (MOLT-4)	GI50 (ACHN)	GI50 (SF-539)	GI50 (U-251)	GI50 (A498)	GI50 (COLO 205)	GI50 (786-0)	GI50 (NCI-H460)	GI50 (Malme-3M)	GI50 (HOP-92)	GI50 (RPMI-8226)	GI50 (SNB-19)	GI50 (HCC 2998)	GI50 (OVCAR-8)	GI50 (LOX IMVI)	GI50 (OVCAR-4)	GI50 (SK-MEL-2)
CC1=CC(=C(c2ccc(N)c(C)c2)c2ccc(N)c(C)c2)C=CC1=N	0.499 µM (active)	3.37 µM (inactive)	3.65 µM (inactive)	8.45 µM (inactive)	2.67 µM (inactive)	0.411 µM (active)	9.16 µM (inactive)	1.93 µM (inactive)	3.11 µM (inactive)	3.61 µM (inactive)	2.91 µM (inactive)	3.32 µM (inactive)	2.18 µM (inactive)	0.689 µM (active)	3.44 µM (inactive)	1.37 µM (inactive)	4.2 µM (inactive)	10.5 µM (inactive)	2.73 µM (inactive)
CSC1C=C(C(C)C)CCC1(C)SC (configuration not stated)	20.6 µM (inactive)	19.2 µM (inactive)	16.5 µM (inactive)	18.7 µM (inactive)	18.7 µM (inactive)	19.5 µM (inactive)	25.6 µM (inactive)	16.2 µM (inactive)	17.8 µM (inactive)	17.2 µM (inactive)	13.3 µM (inactive)	16.2 µM (inactive)	20.9 µM (inactive)	21.2 µM (inactive)	16.6 µM (inactive)	19.4 µM (inactive)	18.3 µM (inactive)	18.1 µM (inactive)	17.7 µM (inactive)
Cn1cnc([N+](=O)[O-])c1Sc1nnnn1C	21.5 µM (inactive)	14.9 µM (inactive)	9.12 µM (inactive)	16.2 µM (inactive)	18.2 µM (inactive)	18 µM (inactive)	65.6 µM (inactive)	12.8 µM (inactive)	17.6 µM (inactive)	39.8 µM (inactive)	13.2 µM (inactive)	12.3 µM (inactive)	23 µM (inactive)	> 100 µM (inactive)	23.6 µM (inactive)	17.2 µM (inactive)	13.4 µM (inactive)	16.9 µM (inactive)	16.9 µM (inactive)
O=[N+]([O-])c1cc(/C=N/NS(=O)(=O)c2ccc(F)cc2)c(O)c([N+](=O)[O-])c1	40.1 µM (inactive)	33.7 µM (inactive)	21.9 µM (inactive)	40.5 µM (inactive)	22 µM (inactive)	23.8 µM (inactive)	29.9 µM (inactive)	18.9 µM (inactive)	41.3 µM (inactive)	28.8 µM (inactive)	63.1 µM (inactive)	38.4 µM (inactive)	27.7 µM (inactive)	33.7 µM (inactive)	> 100 µM (inactive)	24.8 µM (inactive)	39.5 µM (inactive)	58.1 µM (inactive)	45.2 µM (inactive)
O=C(O)CSc1nnc(-c2ccccc2O)[nH]1	> 100 µM (inactive)	> 100 µM (inactive)	> 100 µM (inactive)	> 100 µM (inactive)	> 100 µM (inactive)	> 100 µM (inactive)	> 100 µM (inactive)		> 100 µM (inactive)	> 100 µM (inactive)	> 100 µM (inactive)	> 100 µM (inactive)	> 100 µM (inactive)	> 100 µM (inactive)	> 100 µM (inactive)	> 100 µM (inactive)	> 100 µM (inactive)	> 100 µM (inactive)	> 100 µM (inactive)
C=CCc1ccc(O)c(-c2cc(C3Oc4c(-c5cc(CC=C)ccc5O)cc(O)cc4[C@@H]3CO)ccc2O)c1 (some centres not stated)	30.3 µM (inactive)	23.7 µM (inactive)		36.2 µM (inactive)	24 µM (inactive)	25.2 µM (inactive)	14.8 µM (inactive)	35 µM (inactive)	33.5 µM (inactive)	66.2 µM (inactive)	50.4 µM (inactive)	12.2 µM (inactive)	24.9 µM (inactive)	28.5 µM (inactive)	22.1 µM (inactive)	42.4 µM (inactive)	16.9 µM (inactive)	36.9 µM (inactive)	18.6 µM (inactive)
